In paper PMC9031804, “The Peptide-Drug Conjugate TH1902: A New Sortilin Receptor-Mediated Cancer Therapeutic against Ovarian and Endometrial Cancers” (Cancers, 2022):

Tests used:
[1] = ref [38]; cited from earlier work
From the text: Taxanes, mainly paclitaxel and docetaxel, are well-known microtubule stabilizers used in various cancer including ovarian and endometrial cancer first-line therapies in the last thirty years. […] Here, the new chemical entity TH1902 is distinct from the docetaxel molecule as it selectively exploits SORT1’s internalization properties to trigger cell apoptosis in ES-2 and ...

[2] = system: A2780 ovarian cancer xenografts; experiment: A2780 ovarian cancer xenograft tumor growth; assay type: in vivo, human tumor in female athymic nude mice; details: single agent 10 mg/kg IV bi-weekly
From the text: Animals were obtained from Charles River Laboratories, Inc. and allowed to acclimate for 5 days before experiments. Female CD-1 nude mice (Crl:CD1-Foxn1^nu, 4–6 weeks old; ES-2) or athymic nude mice (Crl:NU(NCr)-Foxn1^nu, 4–6 weeks old; SKOV3, A2780, AN3-CA) were used for the xenograft tumor models. Mice were maintained in a pathogen-free environment and handled in accordance with the Guidelines of the Canadian Council on Animal Care. Animal protocols were approved by the Institutional Animal Care and Use Committee of Université du Québec à Montréal (0620-C1R1-897-0621).
Tumor xenografts were established by subcutaneous inoculation of 5 × 10^6 cells (ES-2) or 7 × 10^6 cells (SKOV3) in 150 µL of HBSS; other xenografts were established by subcutaneous inoculation of 5 × 10^6 cells (A2780) or 2 × 10^6 cells (AN3-CA) in 150 µL of HBSS/Matrigel (50:50). All cells were injected into the right flanks of immunodeficient mice under light isoflurane anesthesia. The injection schedules and doses of injected substances are detailed in the figures. Briefly, when palpable ES-2, SKOV3 or AN3-CA tumors reached a volume of ~100 mm^3, mice were treated weekly with either vehicle, docetaxel (3.75 or 15 mg/kg) or TH1902 (8.75 or 35 mg/kg) at equivalent docetaxel amounts via intravenous (IV) tail vein injection. Note that three cycles of 15 mg/kg docetaxel is the maximum tolerated dose in mice and that 35 mg/kg TH1902 contains the same quantity of docetaxel (bis-linked to the peptide). In A2780 xenografts, when palpable tumors reached a volume of ~250 mm^3, mice were treated with either vehicle, paclitaxel (10 mg/kg, IV), carboplatin (40 mg/kg, intraperitoneal (IP)), docetaxel (10 mg/kg, IV) or TH1902 (23 mg/kg, IV) bi-weekly as single agents or once on Day-0 as combinations with carboplatin. For combination treatments, both taxanes and TH1902 were injected 1 h following carboplatin administrations at the doses previously described. Injectable solutions were prepared as follows: TH1902 was solubilized at 10 mg/mL in 10% Tween-80 in D5W (pH 4.3, w/v) then further diluted with D5W; docetaxel was solubilized at 25 mg/mL in ethanol and Tween-80 (50/50, v/v) then further diluted with D5W; paclitaxel was solubilized at 25 mg/mL in ethanol and Cremophor EL (50/50, v/v) then further diluted in saline; carboplatin was solubilized at 50 mg/mL in water then further diluted in a solution of 30% PEG400 and 5% Tween-80 in D5W (w/v); vehicle composition and preparation mimicked highest dose of TH1902 preparation. Tumor growth was monitored by two-dimensional measurements taken with an electronic caliper and tumor volume was calculated according to the following formula: tumor volume (mm^3) = π/6 × length × width^2. Data are expressed as mean ± SEM and were analyzed using GraphPad Prism software.
Figure 8 Effects of TH1902 and carboplatin combinations on A2780 ovarian cancer xenografts. A2780 cells were subcutaneously implanted in the flanks of athymic nude mice. Tumor volume measurements following bi-weekly administrations of (A) vehicle, docetaxel, TH1902, paclitaxel or carboplatin as single agents, or (B) administered once in combination using the same dosage as described in the methods section. Colored dots below indicate drug treatments for all groups. Data are represented as mean ± SEM (n = 5 mice/group).

[3] = system: SORT1 in ES-2 ovarian cancer cells; experiment: Competition of TH19P01-Alexa^488 uptake, ES-2; assay type: cell-based, human; details: 10 µM neurotensin, 2 h, n = 4
Procedure: (§1) Cells were grown in 12-well plates in complete media for 24 h. Where required, cells were transiently transfected with 100 nM of siRNA (either a scrambled, control siRNA, or one that was directed against a particular mRNA) for 24 h using Lipofectamine 2000. Cells were next washed with PBS and then incubated in HBSS without phenol red for 2 h at 37 °C in the presence or absence of 200 nM Alexa^488-labeled TH19P01 peptide. Alexa^488-labeled TH19P01 peptide uptake was also measured with or without competition by an excess of unlabeled TH19P01 peptide (50 µM) or neurotensin (10 µM) during a 2 h uptake before washing with serum-free media. Cell fluorescence was evaluated in the FL1 channel using a C6 Accuri flow cytometer (BD Biosciences, Mississauga, ON, Canada).
(§2) Figure 4 Internalization of TH19P01-Alexa^488 peptide by SORT1 in ovarian cancer cell lines. […] (B) Uptake of TH19P01-Alexa^488 into two ovarian cancer cell lines was measured in the presence of excess concentrations of substrates known to bind to SORT1 (50 µM TH19P01 and 10 µM neurotensin). […] Results are expressed as normalized RFU according to measurements of control wells. […]

[4] = system: SORT1 in SKOV3 ovarian cancer cells; experiment: Competition of TH19P01-Alexa^488 uptake, SKOV3; assay type: cell-based, human; details: 10 µM neurotensin, 2 h, n = 4
Procedure: as §1, §2

Compound	Water solubility [1]	Tumor growth inhibition [2]	Tumor progression, Size Increase (x-Fold Day-0) ([2]; vehicle group endpoint, n = 5 mice/group)	TH19P01-Alexa^488 uptake with neurotensin [3]	TH19P01-Alexa^488 uptake with neurotensin [4]
CC(=O)O[C@H]1C(=O)[C@@]2(C)[C@H]([C@H](OC(=O)c3ccccc3)[C@]3(O)C[C@H](OC(=O)[C@H](O)[C@@H](NC(=O)c4ccccc4)c4ccccc4)C(C)=C1C3(C)C)[C@]1(OC(C)=O)CO[C@@H]1C[C@@H]2O [Paclitaxel, paclitaxel]	very poor water solubility	36%	4.21 x-Fold Day-0	–	–
neurotensin: known ligand of SORT1, synthesized in-house	–	–	–	reduced	reduced
